The values that follow come from PMC7600264, “Quasi-Irreversible Inhibition of CYP2D6 by Berberine” (Pharmaceutics, 2020).

Series [1] concerns CYP enzymes. Kind of series: Direct CYP inhibition assay using pooled HLM, all CYP enzymes tested. It is filed as in vitro ADME, human. As to conditions: read-out: IC50 values, range over all CYP enzymes tested (pan-CYP inhibitory activities).
Method: (§1) The enzyme reactions were initiated by adding NADPH (1 mM), and the mixtures were incubated at 37 °C for 5 min in a shaking water bath (100 rpm). The reaction was terminated by adding ice-cold acetonitrile (ACN) containing CBZ (100 nM) and 4-methyl-umbelliferone (300 nM) as internal standards (IS).
The chromatographic separation was performed on an Agilent 1200 series HPLC system (Agilent Technologies, Santa Clara, CA, USA) equipped with an Atlantis^TM dC18 column (2.1 × 50 mm, 3 µm; Waters Corporation, Milford, MA, USA) with a SecuityGuard^TM C18 guard column (2.0 × 4.0 mm; Phenomenex, Torrance, CA, USA). The mobile phases consisted of double-deionized water (DDW) containing 0.1% (v/v) of formic acid (A) and ACN containing 0.1% (v/v) formic acid (B). […] The sample injection volume was 10 µL, and the total run time was 9.0 min. The column and auto-sampler compartments were maintained at 30 °C and 10 °C, respectively, throughout the analysis. The detection was performed using an API4000 Q-TRAP system equipped with a Turbo V Ion Spray^TM source (Applied Biosystems, Foster City, CA, USA). […] The samples were analyzed via multiple reaction monitoring (MRM) mode. […]
The target of series [2] is T1, CYP1A2 (Homo sapiens, UniProt P05177).
T1 sequence (P05177 1-516): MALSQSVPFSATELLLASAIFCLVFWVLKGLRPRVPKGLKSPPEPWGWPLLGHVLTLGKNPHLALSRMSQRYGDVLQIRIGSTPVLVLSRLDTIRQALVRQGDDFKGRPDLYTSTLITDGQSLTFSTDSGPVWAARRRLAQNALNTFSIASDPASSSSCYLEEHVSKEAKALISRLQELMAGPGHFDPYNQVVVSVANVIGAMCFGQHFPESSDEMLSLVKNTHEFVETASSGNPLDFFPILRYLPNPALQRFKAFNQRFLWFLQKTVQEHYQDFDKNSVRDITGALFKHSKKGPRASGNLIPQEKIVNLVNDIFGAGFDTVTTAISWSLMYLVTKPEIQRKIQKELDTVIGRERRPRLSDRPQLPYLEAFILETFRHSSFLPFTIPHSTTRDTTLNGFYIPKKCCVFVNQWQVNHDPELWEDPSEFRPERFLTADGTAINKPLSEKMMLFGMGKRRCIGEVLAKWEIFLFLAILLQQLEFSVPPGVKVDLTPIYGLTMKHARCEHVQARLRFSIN
Put plainly: Direct CYP inhibition assay using pooled HLM. As to conditions: microsomes.
Method: as §1
(§2) The chromatographic separation was performed on an Agilent 1200 series HPLC system (Agilent Technologies, Santa Clara, CA, USA) equipped with an Atlantis^TM dC18 column (2.1 × 50 mm, 3 µm; Waters Corporation, Milford, MA, USA) with a SecuityGuard^TM C18 guard column (2.0 × 4.0 mm; Phenomenex, Torrance, CA, USA). The mobile phases consisted of double-deionized water (DDW) containing 0.1% (v/v) of formic acid (A) and ACN containing 0.1% (v/v) formic acid (B). […] The sample injection volume was 10 µL, and the total run time was 9.0 min. The column and auto-sampler compartments were maintained at 30 °C and 10 °C, respectively, throughout the analysis. The detection was performed using an API4000 Q-TRAP system equipped with a Turbo V Ion Spray^TM source (Applied Biosystems, Foster City, CA, USA). The operating conditions were optimized as follows: ionization voltage: 5500 V for positive-ion mode and −4500 V for negative-ion mode; ion source temperature: 550 °C; nebulizing gas flow: 50 L/min; auxiliary gas flow: 40 L/min; and curtain gas flow: 30 L/min. The samples were analyzed via multiple reaction monitoring (MRM) mode. […] The data acquisition and processing were performed using Analyst^TM software (version 1.5.2; Applied Biosystems, Foster City, CA, USA).

For series [3], the target named is T2, CYP2A6 (Homo sapiens, UniProt P11509).
T2 sequence (P11509 1-494): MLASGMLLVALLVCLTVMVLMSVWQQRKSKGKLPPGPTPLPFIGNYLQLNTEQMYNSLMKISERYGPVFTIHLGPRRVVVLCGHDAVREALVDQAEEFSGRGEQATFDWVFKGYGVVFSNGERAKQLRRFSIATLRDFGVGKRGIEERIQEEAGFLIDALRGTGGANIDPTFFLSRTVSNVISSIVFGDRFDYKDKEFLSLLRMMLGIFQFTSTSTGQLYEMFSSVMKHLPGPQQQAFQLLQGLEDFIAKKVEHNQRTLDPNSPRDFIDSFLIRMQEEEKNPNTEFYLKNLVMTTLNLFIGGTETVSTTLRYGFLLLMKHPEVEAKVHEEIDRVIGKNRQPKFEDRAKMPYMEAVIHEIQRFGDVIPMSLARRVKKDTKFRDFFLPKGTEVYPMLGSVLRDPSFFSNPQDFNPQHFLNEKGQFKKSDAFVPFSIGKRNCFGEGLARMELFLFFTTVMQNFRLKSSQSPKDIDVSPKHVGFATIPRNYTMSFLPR
Kind of series: Direct CYP inhibition assay using pooled HLM. As to conditions: microsomes.
Method: as §1, §2

Series [4] has as its target T3, CYP2B6 (Homo sapiens, UniProt P20813).
T3 sequence (P20813 1-491): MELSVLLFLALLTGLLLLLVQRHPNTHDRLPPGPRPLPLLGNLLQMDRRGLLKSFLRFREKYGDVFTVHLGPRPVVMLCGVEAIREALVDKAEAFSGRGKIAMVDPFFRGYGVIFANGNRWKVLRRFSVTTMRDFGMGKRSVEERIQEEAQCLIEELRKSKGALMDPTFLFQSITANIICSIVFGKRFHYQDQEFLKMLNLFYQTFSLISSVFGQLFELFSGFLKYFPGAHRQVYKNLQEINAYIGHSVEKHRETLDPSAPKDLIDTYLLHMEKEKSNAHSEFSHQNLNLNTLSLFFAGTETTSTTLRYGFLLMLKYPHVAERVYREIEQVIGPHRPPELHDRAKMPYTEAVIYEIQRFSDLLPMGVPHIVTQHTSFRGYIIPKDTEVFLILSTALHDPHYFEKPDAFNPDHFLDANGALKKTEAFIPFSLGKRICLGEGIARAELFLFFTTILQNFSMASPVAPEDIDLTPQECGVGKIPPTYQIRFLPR
Kind of series: Direct CYP inhibition assay using pooled HLM. As to conditions: read-out: IC50 CYP2B6; pooled HLM; direct inhibition; 95% confidence intervals in parentheses.
Method: as §1, §2

Series [5] deals with T4, CYP2C8 (Homo sapiens, UniProt P10632).
T4 sequence (P10632 1-490): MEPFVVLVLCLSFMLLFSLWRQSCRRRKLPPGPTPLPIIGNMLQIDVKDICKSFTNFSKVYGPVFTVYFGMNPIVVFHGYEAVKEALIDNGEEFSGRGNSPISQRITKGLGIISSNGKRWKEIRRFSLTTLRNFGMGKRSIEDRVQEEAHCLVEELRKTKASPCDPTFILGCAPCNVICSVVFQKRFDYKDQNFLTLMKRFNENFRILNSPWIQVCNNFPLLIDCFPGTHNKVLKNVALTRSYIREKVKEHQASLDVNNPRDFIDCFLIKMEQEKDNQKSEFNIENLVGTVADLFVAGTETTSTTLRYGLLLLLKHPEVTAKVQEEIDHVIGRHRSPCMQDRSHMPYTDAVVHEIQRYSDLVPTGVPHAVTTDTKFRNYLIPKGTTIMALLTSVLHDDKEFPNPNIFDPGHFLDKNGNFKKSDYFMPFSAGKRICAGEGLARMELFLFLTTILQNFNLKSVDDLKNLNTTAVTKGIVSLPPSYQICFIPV
Kind of series: Direct CYP inhibition assay using pooled HLM. The note with it: microsomes.
Method: as §1, §2

For series [6], the target named is CYP2C9 (Homo sapiens, UniProt P11712). Kind of series: Direct CYP inhibition assay using pooled HLM. As to conditions: microsomes.
CYP2C9, sequence (P11712 whole entry): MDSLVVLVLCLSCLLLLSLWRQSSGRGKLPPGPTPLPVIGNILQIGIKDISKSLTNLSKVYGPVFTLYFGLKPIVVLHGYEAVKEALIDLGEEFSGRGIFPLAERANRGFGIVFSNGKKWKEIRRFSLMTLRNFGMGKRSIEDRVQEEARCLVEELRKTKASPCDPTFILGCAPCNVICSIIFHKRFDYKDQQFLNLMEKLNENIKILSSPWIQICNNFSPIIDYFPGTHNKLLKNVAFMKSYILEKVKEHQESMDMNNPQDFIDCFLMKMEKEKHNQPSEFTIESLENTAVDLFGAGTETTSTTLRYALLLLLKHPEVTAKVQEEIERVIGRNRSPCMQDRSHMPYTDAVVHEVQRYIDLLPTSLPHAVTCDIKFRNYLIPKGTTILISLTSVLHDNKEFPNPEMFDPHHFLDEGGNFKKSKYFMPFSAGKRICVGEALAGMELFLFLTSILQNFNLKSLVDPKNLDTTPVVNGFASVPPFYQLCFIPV
Method: as §1, §2
Series [7] concerns the target CYP2C19 (Homo sapiens, UniProt P33261). Kind of series: Direct CYP inhibition assay using pooled HLM. The note with it: read-out: IC50 CYP2C19; pooled HLM; direct inhibition; 95% confidence intervals in parentheses.
Method: as §1, §2
For series [8], the target named is CYP2D6 (Homo sapiens, UniProt P10635). Put plainly: Direct CYP inhibition assay using pooled HLM. As to conditions: microsomes.
CYP2D6, sequence (P10635 whole entry): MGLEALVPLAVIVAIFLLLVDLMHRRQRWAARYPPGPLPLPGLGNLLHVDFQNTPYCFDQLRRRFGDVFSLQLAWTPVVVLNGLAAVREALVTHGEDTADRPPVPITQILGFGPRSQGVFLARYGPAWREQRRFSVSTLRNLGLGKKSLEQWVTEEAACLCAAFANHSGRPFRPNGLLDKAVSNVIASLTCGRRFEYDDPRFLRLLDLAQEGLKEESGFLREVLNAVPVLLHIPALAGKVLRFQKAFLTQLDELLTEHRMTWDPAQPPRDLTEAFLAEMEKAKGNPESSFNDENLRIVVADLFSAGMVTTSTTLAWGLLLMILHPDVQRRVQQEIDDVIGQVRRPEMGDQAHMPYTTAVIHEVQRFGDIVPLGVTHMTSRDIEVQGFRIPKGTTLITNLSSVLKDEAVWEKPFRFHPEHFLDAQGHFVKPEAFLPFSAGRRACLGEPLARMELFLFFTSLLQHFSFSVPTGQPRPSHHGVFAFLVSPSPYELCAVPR
Method: as §1, §2
Series [9] has as its target CYP2E1 (Homo sapiens, UniProt P05181). Kind of series: Direct CYP inhibition assay using pooled HLM. The note with it: read-out: IC50 CYP2E1; pooled HLM; direct inhibition; 95% confidence intervals in parentheses.
Method: as §1, §2

CYP2E1, sequence (P05181 whole entry): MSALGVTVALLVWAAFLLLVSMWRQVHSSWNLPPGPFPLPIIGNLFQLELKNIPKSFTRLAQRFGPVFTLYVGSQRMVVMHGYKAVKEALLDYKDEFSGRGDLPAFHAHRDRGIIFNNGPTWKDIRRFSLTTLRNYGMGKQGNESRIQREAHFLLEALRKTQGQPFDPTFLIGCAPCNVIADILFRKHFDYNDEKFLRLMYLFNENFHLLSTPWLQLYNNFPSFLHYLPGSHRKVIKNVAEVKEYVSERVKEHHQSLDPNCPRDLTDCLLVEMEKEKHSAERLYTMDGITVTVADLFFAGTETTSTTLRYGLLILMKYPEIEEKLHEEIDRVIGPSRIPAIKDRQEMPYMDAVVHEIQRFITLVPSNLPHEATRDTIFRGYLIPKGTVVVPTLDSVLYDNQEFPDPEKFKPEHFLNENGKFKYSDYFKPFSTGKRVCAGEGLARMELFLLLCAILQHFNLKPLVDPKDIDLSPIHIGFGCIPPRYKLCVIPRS
CYP2C19, sequence (P33261 whole entry): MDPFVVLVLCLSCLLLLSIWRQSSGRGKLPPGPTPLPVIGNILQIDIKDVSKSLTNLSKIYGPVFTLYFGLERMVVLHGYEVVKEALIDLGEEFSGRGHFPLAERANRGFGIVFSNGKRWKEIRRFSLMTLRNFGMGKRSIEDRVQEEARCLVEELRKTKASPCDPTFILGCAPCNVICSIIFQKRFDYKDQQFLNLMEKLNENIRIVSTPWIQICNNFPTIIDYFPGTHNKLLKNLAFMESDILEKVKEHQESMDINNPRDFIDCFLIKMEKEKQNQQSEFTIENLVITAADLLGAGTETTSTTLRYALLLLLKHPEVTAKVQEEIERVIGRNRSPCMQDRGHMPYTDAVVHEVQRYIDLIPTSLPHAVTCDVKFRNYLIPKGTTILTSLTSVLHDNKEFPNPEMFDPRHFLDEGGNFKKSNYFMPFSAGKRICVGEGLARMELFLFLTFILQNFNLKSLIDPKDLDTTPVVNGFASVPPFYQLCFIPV

In general, IC50 refers to the point on the concentration scale where inhibition reaches its midpoint. `COc1ccc2c(c1O)CN1CCc3cc4c(cc3C1C2)OCO4` (stereo not drawn) [TRB, Tetrahydroberberrubine·acetate]: the IC50 in series [1] is 2.7 to 9.6 µM; in series [2], 6.9 µM; in series [3] it was 4.7 µM; in [4], 9.6 µM; in series [5] it was 9.5 µM; in [6] it was 6.5 µM. Further, the IC50 in series [7] is 5.4 µM; in [8], 3.4 µM; in series [9] it was 2700 nM.
